Legend:
VCap prostate cancer = assay: Non-castrated VCap prostate cancer model; assay type: in vivo, male CB17/Scid mice; conditions: Group 7: Abiraterone 350 mg/kg p.o. QD * 26 days
Method: Compound (I), enzalutamide, and abiraterone were tested in non-castrated VCap prostate cancer model in male CB17/Scid mice.
All treatment groups reduced mean tumor volume.

xBT474 breast tumor = xBT474 breast tumor model (ER-negative/HER2-positive); conditions: Group 3: Tucatinib 25 mg/kg PO QD*28 days
xMDA-MB-361 breast tumor = xMDA-MB-361 breast tumor model (ER-positive/HER2-positive); assay type: in vivo, female BALB/c nude mice; conditions: Group 3: Tucatinib 60 mg/kg PO QD*42 days
Method: Trastuzumab, tucatinib, Compound (I), and fulvestrant were tested in a xMDA-MB-361 breast tumor model (ER-positive/HER2-positive) on female BALB/c nude mice.

## C[C@]12CC[C@H](O)CC1=CC[C@@H]1[C@@H]2CC[C@]2(C)C(c3cccnc3)=CC[C@@H]12 [Abiraterone, abiraterone, reference compound]
VCap prostate cancer; Day 0
  Tumor volume (mean ± SEM): 171.7 ± 5.9 mm^3
VCap prostate cancer; Day 4
  Tumor volume (mean ± SEM): 278 ± 22.9 mm^3
VCap prostate cancer; Day 7
  Tumor volume (mean ± SEM): 365.9 ± 35.9 mm^3
VCap prostate cancer; Day 11
  Tumor volume (mean ± SEM): 582.6 ± 43.3 mm^3
VCap prostate cancer; Day 14
  Tumor volume (mean ± SEM): 762.2 ± 73.7 mm^3
VCap prostate cancer; Day 18
  Tumor volume (mean ± SEM): 985.6 ± 86.7 mm^3
VCap prostate cancer; Day 21
  Tumor volume (mean ± SEM): 1056.1 ± 83.2 mm^3
VCap prostate cancer; Day 25
  Tumor volume (mean ± SEM): 1184.9 ± 82.6 mm^3

## Cc1cc(Nc2ncnc3ccc(NC4=NC(C)(C)CO4)cc23)ccc1Oc1ccn2ncnc2c1 [Tucatinib]
xBT474 breast tumor; Day 0
  Tumor volume (mean ± SEM): 146 ± 10 mm^3
xBT474 breast tumor; Day 4
  Tumor volume (mean ± SEM): 177 ± 11 mm^3
xBT474 breast tumor; Day 7
  Tumor volume (mean ± SEM): 199 ± 19 mm^3
xBT474 breast tumor; Day 11
  Tumor volume (mean ± SEM): 168 ± 16 mm^3
xBT474 breast tumor; Day 14
  Tumor volume (mean ± SEM): 169 ± 15 mm^3
xBT474 breast tumor; Day 18
  Tumor volume (mean ± SEM): 234 ± 28 mm^3
xBT474 breast tumor; Day 21
  Tumor volume (mean ± SEM): 288 ± 35 mm^3
xBT474 breast tumor; Day 25
  Tumor volume (mean ± SEM): 341 ± 47 mm^3
xBT474 breast tumor; Day 28
  Tumor volume (mean ± SEM): 397 ± 68 mm^3
xBT474 breast tumor; Day 32
  Tumor volume (mean ± SEM): 406 ± 96 mm^3
xBT474 breast tumor; Day 35
  Tumor volume (mean ± SEM): 488 ± 112 mm^3
xBT474 breast tumor; Day 39
  Tumor volume (mean ± SEM): 420 ± 91 mm^3
xBT474 breast tumor; Day 42
  Tumor volume (mean ± SEM): 431 ± 89 mm^3
xBT474 breast tumor; Day 46
  Tumor volume (mean ± SEM): 421 ± 81 mm^3
xMDA-MB-361 breast tumor; Day 0
  Tumor volume (mean ± SEM): 157 ± 11 mm^3
xMDA-MB-361 breast tumor; Day 3
  Tumor volume (mean ± SEM): 148 ± 11 mm^3
xMDA-MB-361 breast tumor; Day 7
  Tumor volume (mean ± SEM): 156 ± 20 mm^3
xMDA-MB-361 breast tumor; Day 10
  Tumor volume (mean ± SEM): 219 ± 30 mm^3
xMDA-MB-361 breast tumor; Day 14
  Tumor volume (mean ± SEM): 408 ± 59 mm^3
xMDA-MB-361 breast tumor; Day 17
  Tumor volume (mean ± SEM): 658 ± 112 mm^3
xMDA-MB-361 breast tumor; Day 21
  Tumor volume (mean ± SEM): 970 ± 206 mm^3
xMDA-MB-361 breast tumor; Day 24
  Tumor volume (mean ± SEM): 1185 ± 222 mm^3
xMDA-MB-361 breast tumor; Day 28
  Tumor volume (mean ± SEM): 1496 ± 250 mm^3
xMDA-MB-361 breast tumor; Day 31
  Tumor volume (mean ± SEM): 1707 ± 309 mm^3
xMDA-MB-361 breast tumor; Day 35
  Tumor volume (mean ± SEM): 1580 ± 240 mm^3
xMDA-MB-361 breast tumor; Day 38
  Tumor volume (mean ± SEM): 1675 ± 283 mm^3
xMDA-MB-361 breast tumor; Day 42
  Tumor volume (mean ± SEM): 1670 ± 344 mm^3

From patent publication US20230000876A1, “TREATING CANCERS WITH A CYCLIN-DEPENDENT KINASE INHIBITOR” (Nuvation Bio Inc., priority 2021, published 2023)
